Assay results: patent US20240207141A1, “PEPTIDE HAVING REPARATIVE DENTIN-REGENERATING ACTIVITY AND USE THEREOF” (SEOUL NATIONAL UNIVERSITY R&DB FOUNDATION, priority 2022, published 2024)
No end group written: not given here.

Columns and labels:
[1] = system: human dental pulp cells (hDPCs); experiment: Cell viability assay of hDPCs (water-soluble tetrazolium salt); assay type: cell-based; conditions: 50, 100 and 200 μg/ml, 24 or 48 hours
Procedure: Human dental pulp cells (hDPCs) were collected from the patient's third molars after patient consent and approval from the Institutional Review Board (IRB) of Seoul National University Dental Hospital (IRB No. CRI19007) were obtained. The hDPCs were passaged three times in Dulbecco's modified Eagle's medium (DMEM; Gibco BRL, Carlsbad, CA, USA) supplemented with 10% fetal bovine serum (FBS) and 1% penicillin/streptomycin (10,000 U/ml penicillin, 10,000 μg/ml streptomycin; Gibco, Paisley, Scotland). In order to induce odontogenic differentiation, the hDPCs were then cultured using DMEM supplemented with 10% FBS, 1% penicillin/streptomycin, 10 mM β-glycerophosphate, 200 μM ascorbic acid, and 0.1 μM dexamethasone.
The viability of hDPCs in the presence of VnP-16 was investigated using an Cytox Cell Viability Assay Kit (DoGenBio, Seoul, Korea). A 96-well culture plate was treated with 50, 100 and 200 μg/ml VnP-16, and then 1.5×10^4 cells were plated into each well, and incubated for 24 or 48 hours at 37° C. The water-soluble tetrazolium salt reagent ([…] ) was added to each well, and the plate was incubated at 37 °C for 2 hours. Finally, absorbance at 450 nm was measured using a microplate reader (Epoch2, Bio-Tek, VT, USA).

rat pulp exposure model = experiment: Rat tooth pulp exposure model, histologic analysis (H&E) of inflammatory response and hard tissue formation; assay type: in vivo
Procedure: Seven-week-old male Sprague-Dawley rats were purchased from the OrientBio after approval from the Institutional Animal Care and Use Committee of Seoul National University (No. SNU-180109-2) was obtained. […] Resin cement (Rely X U-200, 3M ESPE, MN, USA) was used as the final restoration in all experimental groups.
Specifically, the rats were anesthetized by the intraperitoneal injection of 31.25 mg/kg tiletamine/zolazepam and 8.75 mg/kg xylazine. After ascertaining the general anesthesia, the oral cavity was opened with a customized wire to expose the lower first molars. After cleaning and sanitizing with both 3% H2O2 and a 10% Betadine-soaked cotton, the center of the occlusal surface was carefully punctured using a #¼ round bur (0.5 mm in diameter) with a high-speed hand piece. MTA (ProRoot MTA, Dentsply Sirona, York, PA, USA) was mixed according to the manufacturer's instruction and the mixture was applied to the exposed pulp. […] The punctured sites were covered with resin cement after the application of MTA or the collagen sponge. In the Resin group, resin cement was directly applied to the punctured site. The sharp cusp tips of the upper molar and lower first molar were grinded using a football shaped diamond bur in order to prevent tooth fractures by mastication.
Rats were histologically analyzed 2 and 4 weeks after pulp exposure surgery. Whole mandibles were fixed f in 4% paraformaldehyde at 4° ° C. for 24 hours. For histological staining, the specimens were decalcified with 12% EDTA for 4 weeks and embedded in paraffin. […] Each sample was evaluated and scored for inflammatory response and hard tissue formation according to the criteria presented in [Table 2] below.

[2] = system: human dental pulp cells (hDPCs); experiment: Scratch wound migration assay; assay type: cell-based; conditions: vitronectin 1.25 μg/ml, VnP-16 50 μg/ml; 0, 24 and 48 hours
Procedure: In order to evaluate the migration ability and wound healing ability of hDPCs, the scratch assay was used. The hDPCs were plated in a 24-well plate and incubated in complete medium until 80% confluence. Then, the cells were passaged in serum-free medium for 24 hours, and then stimulated by scratching with a 200 μl pipette tip. After PBS washing to remove cell debris, the cultures were treated with vehicle (10% DMSO), vitronectin (1.25 μg/ml), SP (50 μg/ml), or VnP-16 (50 μg/ml). Pictures were taken using a microscope (Nikon, Tokyo, Japan) at 0, 24 and 48 hours after treatment. The data were analyzed using Image Pro Plus software (version 4.5; Media Cybernetics, MD, USA) to compare the percentage of scratch closure from 0 hour to 48 hours time point. The percentage of: scratch closure was calculated by the following equation: Scratch closure %=[A (0)−A(t)/A(0)]×100. Wherein the scratch area at time zero is “A (0)”; and the area after the incubation time (t) is “A(t)”. The scratch wound migration assay was performed in triplicate.

[3] = system: human dental pulp cells (hDPCs); experiment: hDPCs cell attachment assay on coated plates; assay type: cell-based; conditions: immobilized on plates (vitronectin 0.26 μg/cm2, peptides 10.5 μg/cm2), 1 hour
Procedure: First, for the cell attachment assay, 48-well culture plates were coated with human plasma vitronectin (0.26 μg/cm2) at 4° C. for 24 hours. The SP and VnP-16 (10.5 μg/cm2) were also coated on the plates by drying at room temperature for 24 hours. […] The peptide-coated plates were blocked with 1% heat-inactivated bovine serum albumin (BSA) in phosphate-buffered saline (PBS) at 37° ° C. for 1 hour, and then washed with PBS. The hDPCs (5×10^4 cells/250 μL) were added to each plate and incubated at 37° ° C. for 1 hour, and then unattached cells were removed by rinsing the plates twice with PBS. The attached cells were fixed with 10% formalin for 15 minutes and stained with 0.5% crystal violet for 1 hour. The plates were then gently washed three times with double-distilled water. Afterwards, the contents of each well were solubilized in 2% sodium dodecyl sulfate for 5 minutes, and then absorbance at 570 nm was measured using a microplate reader.

[4] = system: human dental pulp cells (hDPCs); experiment: hDPCs cell spreading assay on coated plates; assay type: cell-based; conditions: immobilized on plates (vitronectin 0.26 μg/cm2, peptides 10.5 μg/cm2), 3 hours
Procedure: In addition, for the cell spreading assay, hDPCs (3×10^4 cells/250 μL) were incubated at 37° ° C. for 3 hours on each peptide-coated plate in the same manner as above. The attached cells were fixed with 10% formalin and stained with 0.5% crystal violet for 1 hour. Then, the plates were gently washed three times with PBS, and then the degree of cell spreading was assessed by measuring the surface area of the cells using Image Pro Plus software (version 4.5; Media Cybernetics, Silver Spring, MD, USA).

RVYFFKGKQYWE-NH2 [VnP-16]
cytotoxicity to hDPCs (cell viability) [1]: no cytotoxicity

FVWRQFYKYEKG [SP, scrambled peptide used as a negative control]
newly formed mineralized tissues at the pulp-exposed sites (rat pulp exposure model; 2 weeks after pulp exposure surgery): hardly detected | hard tissue formation (rat pulp exposure model; 4 weeks after pulp exposure surgery): showed hard tissue formation | quality of the reparative dentin (rat pulp exposure model; 4 weeks after pulp exposure surgery, H&E): non-tubular and large cell-inclusion structure

B1: vitronectin: human plasma vitronectin purchased from Millipore, used as a positive control (protein, UniProt P04004 20-478, looked up)
Vitronectin: DQESCKGRCTEGFNVDKKCQCDELCSYYQSCCTDYTAECKPQVTRGDVFTMPEDEYTVYDDGEEKNNATVHEQVGGPSLTSDLQAQSKGNPEQTPVLKPEEEAPAPEVGASKPEGIDSRPETLHPGRPQPPAEEELCSGKPFDAFTDLKNGSLFAFRGQYCYELDEKAVRPGYPKLIRDVWGIEGPIDAAFTRINCQGKTYLFKGSQYWRFEDGVLDPDYPRNISDGFDGIPDNVDAALALPAHSYSGRERVYFFKGKQYWEYQFQHQPSQEECEGSSLSAVFEHFAMMQRDSWEDIFELLFWGRTSAGTRQPQFISRDWHGVPGQVDAAMAGRIYISGMAPRPSLAKKQRFRHRNRKGYRSQRGHSRGRNQNSRRPSRATWLSLFSSEESNLGANNYDDYRMDWLVPATCEPIQSVFFFSGDKYYRVNLRTRRVDTVDPPYPRSIAQYWLGCPAPGHL
wound migration of hDPCs (scratch closure) [2]: strongly promoted the wound migration | cell attachment of hDPCs [3]: strongly promoted cell attachment and spreading | cell spreading of hDPCs [4]: strongly promoted cell attachment and spreading
